As a reminder, the pIC50 is the IC50 on a negative log10 scale, so that one unit is a factor of ten. Usually CC50 stands for the concentration giving 50% cytotoxicity.

The source of these data is ChEMBL document CHEMBL3286212, “Synthesis of isoquinolinone-based tricycles as novel poly(ADP-ribose) polymerase-1 (PARP-1) inhibitors” (Bioorg Med Chem Lett, 2014).

The structures appear in SMILES notation. pIC50: −log10 of the molar value. Where only a bound is given, the exact number is not on record here.

In data set [1] the target is Poly [ADP-ribose] polymerase 1 (Homo sapiens, UniProt P09874). Put plainly: Inhibition of human recombinant PARP-1 after 1 hr by ELISA. On the technique in general: In an ELISA, binding on a coated surface is turned into a signal by an enzyme label.
Sequence of Poly [ADP-ribose] polymerase 1 (P09874 whole entry): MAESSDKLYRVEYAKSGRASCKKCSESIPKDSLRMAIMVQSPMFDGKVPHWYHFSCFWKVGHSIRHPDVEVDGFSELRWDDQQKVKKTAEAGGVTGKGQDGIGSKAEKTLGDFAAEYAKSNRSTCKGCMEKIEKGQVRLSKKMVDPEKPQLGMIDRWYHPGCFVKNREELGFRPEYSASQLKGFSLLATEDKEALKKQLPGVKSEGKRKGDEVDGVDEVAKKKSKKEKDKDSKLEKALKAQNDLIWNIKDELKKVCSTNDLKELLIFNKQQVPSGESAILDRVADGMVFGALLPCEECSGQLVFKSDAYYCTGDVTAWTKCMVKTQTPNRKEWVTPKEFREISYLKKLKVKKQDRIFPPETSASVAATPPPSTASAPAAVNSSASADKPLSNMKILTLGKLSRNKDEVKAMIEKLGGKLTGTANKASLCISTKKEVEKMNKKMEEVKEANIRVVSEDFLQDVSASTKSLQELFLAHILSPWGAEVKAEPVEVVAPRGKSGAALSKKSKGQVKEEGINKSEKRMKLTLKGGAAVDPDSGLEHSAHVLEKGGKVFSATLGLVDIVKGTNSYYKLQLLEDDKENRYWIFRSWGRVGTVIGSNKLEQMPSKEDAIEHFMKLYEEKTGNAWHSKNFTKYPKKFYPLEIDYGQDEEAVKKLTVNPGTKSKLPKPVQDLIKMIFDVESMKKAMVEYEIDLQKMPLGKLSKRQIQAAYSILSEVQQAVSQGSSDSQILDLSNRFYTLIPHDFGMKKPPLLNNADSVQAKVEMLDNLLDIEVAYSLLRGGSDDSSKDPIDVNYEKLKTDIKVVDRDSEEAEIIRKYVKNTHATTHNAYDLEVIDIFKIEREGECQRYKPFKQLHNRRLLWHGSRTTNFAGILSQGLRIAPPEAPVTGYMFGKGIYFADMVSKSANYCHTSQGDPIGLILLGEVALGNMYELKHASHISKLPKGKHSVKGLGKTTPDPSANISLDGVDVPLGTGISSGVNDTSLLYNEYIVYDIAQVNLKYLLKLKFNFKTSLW
Data set [2] is described as follows: Cytotoxicity against Chinese hamster V79 cells by sulforhodamine B assay. In kind it is cell-based, Cricetulus griseus.
Data set [3] in a line: Cytotoxicity against BRCA2-deficient Chinese hamster VC8 cells by sulforhodamine B assay. The class given is functional. The settings on record: Cricetulus griseus, V-C8. (Sulforhodamine B stains cellular protein and so reports cell mass.)
Data set [4] in a line: Cytotoxicity against BRCA1-deficient human MDA-MB-436 cells by sulforhodamine B assay. The class given is functional.

As for `Cc1c(C(=O)N2CC=C(c3ccc(F)cc3)CC2)sc2c1[nH]c(=O)c1ccccc12`, the pIC50 in data set [1] was 6.88.
Regarding `Cn1c(C(=O)N2CCN(Cc3ccccc3)CC2)cc2[nH]c(=O)c3ccccc3c21`, the pIC50 in data set [1] was 6.07.
Same read-out and setting: as for `Cn1c(C(=O)NCCN2CCCC2)cc2c1-c1ccccc1C(=O)NC2`, the figure is 5.09; as for `COc1cccc(CN2CCN(C(=O)c3cc4[nH]c(=O)c5ccccc5c4n3C)CC2)c1`, 6.40.
Still for that read-out and setting: to `CC(C)N1CCN(C(=O)c2cc3[nH]c(=O)c4ccccc4c3n2C)CC1` belongs 6.08; to `Cn1c(C(=O)N2CC=C(c3ccc(F)cc3)CC2)cc2c1-c1ccccc1C(=O)NC2`, 5.78.
Same read-out and setting: to `Cn1c(C(=O)NCCCN2CCOCC2)cc2[nH]c(=O)c3ccccc3c21` belongs 7.00; to `Cn1c(C(=O)N2CCNCC2)cc2[nH]c(=O)c3ccccc3c21`, 7.36.
For `Cc1c(C(=O)NCCN2CCOCC2)sc2c1[nH]c(=O)c1ccccc12`, in data set [1], the pIC50 is 7.08.
Take `CN1CCN(C(=O)c2cc3c(n2C)-c2ccccc2C(=O)NC3)CC1`: the negative-log IC50 (pIC50) in data set [1] was under 5.00.
Consider `CC(C)S(=O)(=O)N1CCN(C(=O)c2cc3[nH]c(=O)c4ccccc4c3n2C)CC1`, for which the pIC50 in data set [1] is 6.22.
On the same count and under the same terms, as for `Cn1c(C(=O)N2CCCNCC2)c(Br)c2[nH]c(=O)c3ccccc3c21`, the figure is 7.00; as for `Cc1c(C(=O)NCCN2CCN(C)CC2)sc2c1[nH]c(=O)c1ccccc12`, 6.55.
As for `CCN1CCN(C(=O)c2sc3c([nH]c(=O)c4ccccc43)c2C)CC1`, the pIC50 in data set [1] was 7.10. In addition, the CC50 in data set [2] was over 10000 nM; in data set [3], over 10000 nM; in data set [4], 3480 nM.
For the compound `CN(C)CCCNC(=O)c1cc2[nH]c(=O)c3ccccc3c2n1C`, the negative-log IC50 (pIC50) in data set [1] is 6.52.
The same measure, in the same setting: as for `CN1CCN(C(=O)c2cc3[nH]c(=O)c4ccccc4c3n2C)CC1`, the figure is 6.92; as for `Cc1c(C(=O)N2CCN(C)CC2)sc2c1[nH]c(=O)c1ccccc12`, 6.64.
`Cn1c(C(=O)N2CCN(Cc3ccc([N+](=O)[O-])cc3)CC2)cc2[nH]c(=O)c3ccccc3c21`: the pIC50 in data set [1] is under 5.00.
`CN(C)CCNC(=O)c1cc2[nH]c(=O)c3ccccc3c2n1C`: the pIC50 in data set [1] was 5.96.
For the compound `CN1CCCN(C(=O)c2cc3[nH]c(=O)c4ccccc4c3n2C)CC1`, the pIC50 in data set [1] was 6.70.
Turning to `Cn1c(C(=O)N2CCCNCC2)cc2[nH]c(=O)c3ccccc3c21`, the pIC50 in data set [1] was 7.00. For the same compound, the 50% cytotoxic concentration (CC50) is over 10000 nM in data set [2], over 10000 nM in data set [3] and 1190 nM in data set [4].
With `Cc1c(C(=O)N2CCC(N(C)C)CC2)sc2c1[nH]c(=O)c1ccccc12`, the pIC50 in data set [1] was 7.54. The CC50 in data set [2], in data set [3] and in data set [4] was over 10000 nM in each case.
For the compound `Cn1c(C(=O)N2CCCNCC2)c(Cl)c2[nH]c(=O)c3ccccc3c21`, the pIC50 in data set [1] was 7.00.
As to `Cc1c(C(=O)N2CCN(C(C)C)CC2)sc2c1[nH]c(=O)c1ccccc12`, in data set [1], the pIC50 was 7.07. Further, the CC50 in data set [2], in data set [3] and in data set [4] was over 10000 nM in each case.
Regarding `CN(C)C1CCN(C(=O)c2cc3c(n2C)-c2ccccc2C(=O)NC3)CC1`, the pIC50 in data set [1] is 5.19.
Consider `Cc1c(C(=O)NCCN2CCCC2)sc2c1[nH]c(=O)c1ccccc12`, for which the pIC50 in data set [1] was 6.61.
For the compound `O=C(c1cc(Cc2n[nH]c(=O)c3ccccc23)ccc1F)N1CCN(C(=O)C2CC2)CC1` [OLAPARIB], the CC50 turned out to be 8980 nM in data set [2], 468 nM in data set [3] and 16.9 nM in data set [4].
Consider `CN1CCCN(C(=O)c2cc3c(n2C)-c2ccccc2C(=O)NC3)CC1`, for which, in data set [1], the pIC50 was 5.00.
